Assays:
HCT-116 = assay: Antiproliferative activity against human HCT116 cells assessed as reduction in cell growth incubated for 72 hrs by MTT assay; type: functional, cell-based; conditions: HCT-116, 72 h
MCF7 [1] = assay: Antiproliferative activity against human MCF7 cells assessed as reduction in cell growth incubated for 72 hrs by MTT assay; type: functional, cell-based; conditions: MCF7, 72 h
TERT-RPE1 = assay: Cytotoxicity against human RPE1 cells assessed as reduction in cell growth incubated for 72 hrs by MTT assay; type: cell-based; conditions: RPE-1, 72 h
[2] = molecular target: T1, Peroxisome proliferator-activated receptor gamma (Homo sapiens, UniProt P37231); assay: Antagonist activity at human PPARgamma LBD expressed in yeast AH109 cells assessed as reduction in rosiglitazone-stimulated PPARgamma/CBP interaction by measuring alpha galactosidase activity using PNP-alpha-Gal as substrate by alpha-galactosidase based yeast-two hybrid assay; type: cell-based
T1 sequence (P37231 whole entry): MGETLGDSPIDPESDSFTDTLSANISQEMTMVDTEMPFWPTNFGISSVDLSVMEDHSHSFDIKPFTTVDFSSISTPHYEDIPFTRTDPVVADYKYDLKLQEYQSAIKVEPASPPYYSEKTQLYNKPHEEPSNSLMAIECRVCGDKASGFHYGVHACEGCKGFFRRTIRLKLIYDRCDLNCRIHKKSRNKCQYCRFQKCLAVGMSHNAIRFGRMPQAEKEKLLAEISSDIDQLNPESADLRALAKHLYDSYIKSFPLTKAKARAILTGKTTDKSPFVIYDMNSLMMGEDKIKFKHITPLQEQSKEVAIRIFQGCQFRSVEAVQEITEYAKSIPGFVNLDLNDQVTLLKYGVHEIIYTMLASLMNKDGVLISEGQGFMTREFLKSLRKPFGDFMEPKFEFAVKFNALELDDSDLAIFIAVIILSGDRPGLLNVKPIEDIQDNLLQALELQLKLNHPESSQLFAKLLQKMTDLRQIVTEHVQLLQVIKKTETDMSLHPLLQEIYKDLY

MCF7 [3] = assay: Antiproliferative activity against human MCF7 cells assessed as reduction in cell growth incubated for 48 hrs by MTT assay; type: functional, cell-based; conditions: MCF7, 48 h

Compound: COc1ccc(/C=C2\S/C(=N\c3c(C)cccc3C)N(C)C2=O)cc1
- IC50 (HCT-116): > 100 µM
- IC50 (MCF7 [1]): > 100 µM
- IC50 (TERT-RPE1): > 100 µM

Compound: COc1ccc(/C=C2\S/C(=N\c3ccc(C)c(Cl)c3)N(C)C2=O)cc1
- IC50 (HCT-116): 14.1 µM
- IC50 (MCF7 [1]): > 100 µM
- IC50 (TERT-RPE1): 23 µM

Compound: COc1ccc(/C=C2\S/C(=N\c3ccc(C)cc3)N(C)C2=O)cc1
- IC50 (HCT-116): > 100 µM
- IC50 (MCF7 [1]): > 100 µM
- IC50 (TERT-RPE1): > 100 µM

Compound: COc1ccc(/C=C2/CN(C)/C(=N/c3ccc(Br)cc3)S2)cc1
- IC50 (HCT-116): 8.9 µM
- IC50 (MCF7 [1]): 7.4 µM
- IC50 (TERT-RPE1): 61.3 µM

Compound: COc1ccc(/C=C2\S/C(=N\c3ccc(Cl)cc3)N(C)C2=O)cc1
- IC50 (HCT-116): 10.4 µM
- IC50 (MCF7 [1]): 39.3 µM
- IC50 (TERT-RPE1): > 100 µM

Compound: FC(F)(F)c1cc(/N=C2/NC/C(=C/c3ccccc3)S2)cc(C(F)(F)F)c1
- IC50 (HCT-116): 16.1 µM
- IC50 (MCF7 [1]): 13.5 µM
- IC50 (TERT-RPE1): 32.8 µM

Compound: S=C(Nc1ccccc1)N1C/C(=C/c2ccccc2)S/C1=N\c1ccccc1
- IC50 (HCT-116): > 100 µM
- IC50 (MCF7 [1]): > 100 µM
- IC50 (TERT-RPE1): > 100 µM

Compound: COc1ccc(/C=C2\S/C(=N\c3ccc(Br)cc3)N(C)C2=O)cc1
- IC50 (HCT-116): 17 µM
- IC50 (MCF7 [1]): > 100 µM
- IC50 (TERT-RPE1): > 100 µM

Compound: COc1ccc(/C=C2\S/C(=N\c3ccc(C(C)(C)C)cc3)N(C)C2=O)cc1
- IC50 (HCT-116): > 100 µM
- IC50 (MCF7 [1]): > 100 µM
- IC50 (TERT-RPE1): 46.7 µM

Compound: COc1ccc(/C=C2/CN(C)/C(=N/c3ccc([N+](=O)[O-])cc3)S2)cc1
- IC50 (HCT-116): 10.2 µM
- IC50 (MCF7 [1]): 9.8 µM
- IC50 (TERT-RPE1): > 100 µM

Compound: COc1ccc(/C=C2/CN(C)/C(=N/c3ccc(F)cc3)S2)cc1
- IC50 (HCT-116): 10 µM
- IC50 (MCF7 [1]): 8 µM
- IC50 (TERT-RPE1): 42.8 µM

Compound: COc1ccc(/C=C2/CN(C)/C(=N/c3ccc(C(F)(F)F)cc3)S2)cc1
- IC50 (HCT-116): 34.3 µM
- IC50 (MCF7 [1]): 24.1 µM
- IC50 (TERT-RPE1): 72 µM

Compound: C=CC/N=C1/NCC(=C)S1
- IC50 (HCT-116): > 100 µM
- IC50 (MCF7 [1]): > 100 µM
- IC50 (TERT-RPE1): > 100 µM

Compound: COc1ccc(/C=C2/CN(C)/C(=N/c3ccc(C(C)(C)C)cc3)S2)cc1
- IC50 (HCT-116): 25.9 µM
- IC50 (MCF7 [1]): 28.7 µM
- IC50 (TERT-RPE1): 23.5 µM

Compound: COc1ccc(/C=C2\S/C(=N\c3ccc(F)cc3)N(C)C2=O)cc1
- IC50 (HCT-116): 13.3 µM
- IC50 (MCF7 [1]): 66.5 µM
- IC50 (TERT-RPE1): > 100 µM

Compound: COc1ccc(/C=C2/CN(C)/C(=N/c3ccc(C)cc3)S2)cc1
- IC50 (HCT-116): 11.1 µM
- IC50 (MCF7 [1]): 7.6 µM
- IC50 (TERT-RPE1): 65.7 µM

Compound: COc1ccc(/C=C2\S/C(=N\c3cc(C(F)(F)F)cc(C(F)(F)F)c3)N(C)C2=O)cc1
- IC50 (HCT-116): > 100 µM
- IC50 (MCF7 [1]): 77.8 µM
- IC50 (TERT-RPE1): > 100 µM

Compound: C=C1CN(C)/C(=N/c2ccccc2)S1
- IC50 (HCT-116): > 100 µM
- IC50 (MCF7 [1]): > 100 µM
- IC50 (TERT-RPE1): > 100 µM

Compound: COc1ccc(/C=C2/CN(C)/C(=N/c3ccc(OC)cc3)S2)cc1
- IC50 (HCT-116): 15.9 µM
- IC50 (MCF7 [1]): 8.7 µM
- IC50 (TERT-RPE1): 65.9 µM

Compound: CCOc1cc(/C=C2\S/C(=N/c3ccc(Cl)c(C(=O)O)c3)N(C)C2=O)cc(Cl)c1O
- IC50 [2]: 7.97 µM
- IC50 (MCF7 [3]): 108 µM

Compound: COc1ccc(/C=C2\S/C(=N\c3ccc(OC)cc3)N(C)C2=O)cc1
- IC50 (HCT-116): > 100 µM
- IC50 (MCF7 [1]): > 100 µM
- IC50 (TERT-RPE1): > 100 µM

Compound: C=CC/N=C1\S/C(=C\c2ccc(OC)cc2)C(=O)N1C
- IC50 (HCT-116): 79.3 µM
- IC50 (MCF7 [1]): > 100 µM
- IC50 (TERT-RPE1): > 100 µM

Compound: COc1ccc(/C=C2\S/C(=N\c3ccccc3)N(C)C2=O)cc1
- IC50 (HCT-116): > 100 µM
- IC50 (MCF7 [1]): > 100 µM
- IC50 (TERT-RPE1): > 100 µM

Compound: COc1ccc(/C=C2/CN(C)/C(=N/c3ccc(Cl)cc3)S2)cc1
- IC50 (HCT-116): 9.8 µM
- IC50 (MCF7 [1]): 7.6 µM
- IC50 (TERT-RPE1): 39.6 µM

Compound: C=C1CN/C(=N/c2ccccc2)S1
- IC50 (HCT-116): > 100 µM
- IC50 (MCF7 [1]): > 100 µM
- IC50 (TERT-RPE1): > 100 µM

Compound: O=c1[nH]cc(F)c(=O)[nH]1 [FLUOROURACIL]
- IC50 (HCT-116): 20.4 µM
- IC50 (MCF7 [1]): 3.2 µM

From ChEMBL document CHEMBL4396955, “Novel thiazolidines: Synthesis, antiproliferative properties and 2D-QSAR studies” (Bioorg Med Chem, 2019)
